Experimental data as given in publication PMC6321166, “Screening of a Library of Oligosaccharides Targeting Lectin LecB of Pseudomonas Aeruginosa and Synthesis of High Affinity Oligoglycoclusters” (Molecules, 2018).

Columns and labels:
LecB (PAO1) = target: T1, LecB (PAO1) (Pseudomonas aeruginosa, UniProt Q9HYN5); assay: Competitive assay on microarray: glycans in solution compete with immobilized fucocluster F1 for Alexa 647-LecB; assay type: binding; set-up: key: A Grade A was given for oligosaccharides that were able to reduce 80 to 40% of the fluorescent signal at a concentration of 0.1 µM and to reduce it by more than 90% at concentrations of 1, 5 and 15 µM; Grade B indicated a decrease of fluorescence by 70% to 90% at 1 µM and more than 90% at 5 and 15 µM; Grade C corresponded to a decrease of 50 to 70% for 1 µM, around 80% for 5 µM and more than 90% at 15 µM; D indicated a decrease of less than 50% for 1 µM and 80% at 5 and 15 µM; When no inhibition was observed for the four concentrations tested, the grade was E; details: glycan at 0.1, 1.0, 5.0 and 15 µM, Alexa 647-LecB 0.12 µM
T1 construct: purchased Elicityl
Procedure: F1 was immobilized on a DNA chip, thanks to its DNA sequence. The distance between two F1 on the surface was estimated to be nearly 50 nm. Therefore, the lectin LecB can only bind to one F1 glycocluster at the time. The binding of immobilized F1 to LecB was competed with each of the 156 glycans at four different concentrations (0.1, 1.0, 5.0 and 15 µM). For each glycan and each concentration, the alexa 647-LecB fluorescent signal was recorded and averaged over 16 spots, leading to four-point competition histograms (Figure 2 and Figure S2). 100% signal (see Figure 2) corresponded to the fluorescent signal measured with a reference assay under which no competition could occur. Glycans able to compete with F1 to bind LecB lead to a decrease of the fluorescent signal. Therefore, for a given glycan concentration, strong binding glycans lead to stronger decrease of the fluorescent signal so to lower percentages. Accordingly, tested glycans were classified qualitatively into 5 groups (A, B, C, D and E) depending to their ability to reduce the measured fluorescent signal at the four different concentrations (Figure 2 and Table 1). Grade A are stronger competitor than grade B which are stronger than grade C, and so on. A Grade A was given for oligosaccharides that were able to reduce 80 to 40% of the fluorescent signal at a concentration of 0.1 µM and to reduce it by more than 90% at concentrations of 1, 5 and 15 µM. Grade B indicated a decrease of fluorescence by 70% to 90% at 1 µM and more than 90% at 5 and 15 µM. Grade C corresponded to a decrease of 50 to 70% for 1 µM, around 80% for 5 µM and more than 90% at 15 µM. D indicated a decrease of less than 50% for 1 µM and 80% at 5 and 15 µM.
Cy3-oligonucleotide oligoglycoclusters F1 [46] […] In each microwell, 1.5 µL of the oligoglycocluster mixture was incubated for DNA-directed immobilization (DDI) for 3 h at 37 °C in a water-saturated atmosphere. The slides were washed with saline sodium citrate (SSC) 2× SDS 0.1% at 51 °C for 1 min, SSC 2× for 5 min and rinsed with water.
A library of 156 sugars extracted from biomass or produced by bacterial fermentation (see Supporting Information) issued from the OligoTech® (Elicityl) was screened in a competitive assay. The binding of the 156 carbohydrates was screened toward the lectin LecB (PAO1, Elicityl). Lectin was labeled as previously described using the Alexa Fluor® 647 Microscale Protein Labelling Kit (Invitrogen).
On each slide, nine oligosaccharides and α-L-fucose (as a control) were tested. The inhibitory effect of each oligosaccharide was determined at four concentrations 0.1, 1.0, 5.0 and 15 µM and at 0.5, 2.5, 5.0 and 7.5 mg/L for polymers: Aliginate, galacturonan, galactomannan, glucomannan, mannan, ulvan, xylan and the glucan. To this end, the labeled LecB lectin (0.12 µM final concentration), BSA (2%, final concentration), CaCl2 (7.5 µM, final concentration) in PBS 1× (pH 7.4) were mixed with the solutions of oligosaccharides (from the OligoTech®, Crolles, France). For each concentration, 1.5 µL of the mixture was poured into a microwell, where F1 was previously immobilized. The slides were incubated for 3 h at 37 °C in a water-saturated atmosphere. In each microwell, a competition between the two types of glycoclusters (F1) and oligosaccharide occurred to bind LecB. The microarrays were washed with 0.02% PBS-Tween20 for 5 min at room temperature. The fluorescence signal emitted by the complex glycocluster/Alexa 647-lectin was detected and an average of the mean fluorescence signal of 16 spots per glycocluster was calculated. The percentage of inhibition was calculated as follows: The alexa-647 fluorescent signal for a given sugar was normalized by the Alexa 647 fluorescent signal measured at 0.1 µM of fucose.

LecB = LecB (Pseudomonas aeruginosa, UniProt Q9HYN5); details: cited from earlier work
LecB from PAO1 = details: read-out: dissociation constant (Kd); cited from earlier work
LecB from PA14 = target: LecB from PA14; set-up: method as in PMID 30155149; details: read-out: dissociation constant (Kd); cited from earlier work
LecB from PA7 = target: LecB from PA7; set-up: method as in PMID 27303392; details: read-out: dissociation constant (Kd); cited from earlier work

LecB, sequence (Q9HYN5 entry or part of it): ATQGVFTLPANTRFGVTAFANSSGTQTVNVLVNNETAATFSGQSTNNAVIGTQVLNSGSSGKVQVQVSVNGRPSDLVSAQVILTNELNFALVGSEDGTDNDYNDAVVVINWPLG
T1 sequence (Q9HYN5 entry or part of it): as above

Compound: GalNAcα1-3(Fucα1-2)Gal [Id. 15]
- Grade (ability to reduce the F1/LecB fluorescent signal) (LecB (PAO1)): D (D indicated a decrease of less than 50% for 1 µM and 80% at 5 and 15 µM)

Compound: OC[C@H]1OC(O)[C@@H](O)[C@@H](O)[C@@H]1O (stereo partly drawn) [D-mannose]
- interaction with LecB, times weaker than L-fucose (LecB): 25 times

Compound: Neu5Acα2-3Galβ1-4(Fucα1-3)GlcNAcβ1-3Gal [Id. 29]
- Grade (ability to reduce the F1/LecB fluorescent signal) (LecB (PAO1)): C (Grade C corresponded to a decrease of 50 to 70% for 1 µM, around 80% for 5 µM and more than 90% at 15 µM)

Compound: Fucα1-2Galβ1-3(Fucα1-4)GlcNAcβ1-3Gal [Id. 32]
- Grade (ability to reduce the F1/LecB fluorescent signal) (LecB (PAO1)): C (Grade C corresponded to a decrease of 50 to 70% for 1 µM, around 80% for 5 µM and more than 90% at 15 µM)

Compound: Galα1-3(Galβ1-4GlcNAcβ1-3)2Galβ1-4Glc [Id. 45]
- Grade (ability to reduce the F1/LecB fluorescent signal) (LecB (PAO1)): E

Compound: Galβ1-4(Fucα1-3)Glc [Id. 33]
- Grade (ability to reduce the F1/LecB fluorescent signal) (LecB (PAO1)): B (Grade B indicated a decrease of fluorescence by 70% to 90% at 1 µM and more than 90% at 5 and 15 µM)

Compound: CC(=O)N[C@H]1[C@H](O[C@H]2[C@@H](O)[C@@H](CO)OC(O)[C@@H]2O)O[C@H](CO)[C@@H](O[C@@H]2O[C@@H](C)[C@@H](O)[C@@H](O)[C@@H]2O)[C@@H]1O[C@@H]1O[C@H](CO)[C@H](O)[C@H](O)[C@H]1O (stereo partly shown) [Id. 30, Galβ1-3(Fucα1-4)GlcNAcβ1-3Gal]
- Grade (ability to reduce the F1/LecB fluorescent signal) (LecB (PAO1)): A (A Grade A was given for oligosaccharides that were able to reduce 80 to 40% of the fluorescent signal at a concentration of 0.1 µM and to reduce it by more than 90% at concentrations of 1, 5 and 15 µM)

Compound: CC(=O)N[C@H]1[C@H](O[C@H]2[C@@H](O)[C@@H](CO)OC(O)[C@@H]2O)O[C@H](CO)[C@@H](O[C@@H]2O[C@H](CO)[C@H](O)[C@H](O)[C@H]2O)[C@@H]1O[C@@H]1O[C@@H](C)[C@@H](O)[C@@H](O)[C@@H]1O (stereo partly shown) [Id. 26, Galβ1-4(Fucα1-3)GlcNAcβ1-3Gal]
- Grade (ability to reduce the F1/LecB fluorescent signal) (LecB (PAO1)): C (Grade C corresponded to a decrease of 50 to 70% for 1 µM, around 80% for 5 µM and more than 90% at 15 µM)

Compound: Nc1ccc(S(N)(=O)=O)cc1 [sulfonamide]
- Kd (LecB; inhibitors of LecB): 3.3 µM

Compound: O=C[C@H](O)[C@@H](O)[C@@H](O)[C@H](O)CO [D-galactose]
- recognition by LecB (LecB): not recognized

Compound: CO[C@@H]1O[C@@H](C)[C@@H](O)[C@@H](O)[C@@H]1O [FucOMe]
- Kd (LecB from PAO1): 430 nM
- Kd (LecB from PA14): 200 nM
- Kd (LecB from PA7): 2200 nM
